Assay results as given in ChEMBL document CHEMBL3879915, “Methods of inhibiting PRMT5” (2014).

Legend:
[1] = target: Protein arginine N-methyltransferase 5 (Homo sapiens, UniProt O14744); experiment: Inhibition of PRMT5 in human Z138 cells assessed as decrease in di-methyl arginine levels after 96 hrs by Western blot method; format: cell-based
[2] = target: PRMT5/MEP50 complex (Homo sapiens, UniProt O14744); experiment: Inhibition of recombinant human fetal brain FLAG-tagged PRMT5/full length human testis 6His-tagged MEP50 expressed in baculovirus infected insect Sf9 cells using human histone H4 (1 to 15 residues) as substrate preincubated for 30 mins followed by [3H]-SAM addition
Sequence of PRMT5/MEP50 complex (O14744 whole entry, the tested form may be a part): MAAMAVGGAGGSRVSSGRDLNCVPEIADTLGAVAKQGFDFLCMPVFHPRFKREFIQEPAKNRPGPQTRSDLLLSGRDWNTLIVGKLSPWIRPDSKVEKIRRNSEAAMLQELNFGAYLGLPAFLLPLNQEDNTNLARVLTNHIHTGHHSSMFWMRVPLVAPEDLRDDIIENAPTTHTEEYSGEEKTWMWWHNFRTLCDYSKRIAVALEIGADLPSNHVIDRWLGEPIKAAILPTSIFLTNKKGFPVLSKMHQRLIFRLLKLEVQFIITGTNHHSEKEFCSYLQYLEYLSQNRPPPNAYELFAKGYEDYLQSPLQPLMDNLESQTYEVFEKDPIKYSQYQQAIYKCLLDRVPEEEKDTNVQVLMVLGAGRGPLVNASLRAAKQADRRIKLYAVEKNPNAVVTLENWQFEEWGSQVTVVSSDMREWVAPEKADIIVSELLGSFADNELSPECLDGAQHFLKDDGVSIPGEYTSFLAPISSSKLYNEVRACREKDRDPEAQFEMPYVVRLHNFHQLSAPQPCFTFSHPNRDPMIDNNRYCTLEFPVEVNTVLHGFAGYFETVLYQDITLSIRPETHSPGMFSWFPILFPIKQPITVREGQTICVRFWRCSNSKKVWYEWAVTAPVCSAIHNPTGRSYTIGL
Sequence of PRMT5/MEP50 complex (Q9BQA1 whole entry, further chain, the tested form may be a part): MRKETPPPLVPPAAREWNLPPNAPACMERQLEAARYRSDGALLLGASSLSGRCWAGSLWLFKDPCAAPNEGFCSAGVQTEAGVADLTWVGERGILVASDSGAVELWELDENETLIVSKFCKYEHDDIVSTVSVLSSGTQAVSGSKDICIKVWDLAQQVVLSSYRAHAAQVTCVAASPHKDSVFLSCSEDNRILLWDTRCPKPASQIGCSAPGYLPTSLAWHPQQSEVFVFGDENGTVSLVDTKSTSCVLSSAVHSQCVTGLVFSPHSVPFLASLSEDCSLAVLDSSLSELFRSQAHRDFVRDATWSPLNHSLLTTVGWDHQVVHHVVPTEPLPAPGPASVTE

[3] = Antiproliferative activity against human Z138 cells assessed as inhibition of cell viability after 5 days by Cell-Titer Glo assay; format: functional, cell-based; details: Z-138, 120 h

Sequence of Protein arginine N-methyltransferase 5 (O14744 whole entry, the tested form may be a part): as the sequence (O14744 whole entry, the tested form may be a part) above

## Cn1cnc2ccc(-c3ccnc(NC[C@H](O)CN4CCc5ccccc5C4)c3)cc21
[1]
  EC50: 0.101 to 1 µM
[2]
  IC50: < 0.1 µM
[3]
  EC50: 1 to 10 µM

## OC(CNc1cc(-c2ccc3ncn(C4COC4)c3c2)ccn1)CN1CCc2ccccc2C1 (stereo unspecified)
[1]
  EC50: 0.101 to 1 µM
[2]
  IC50: < 0.1 µM
[3]
  EC50: 1 to 10 µM

## C[C@@H](Oc1cccc2cccnc12)C(=O)NC[C@H](O)CN1Cc2ccccc2C1
[1]
  EC50: 0.101 to 1 µM
[2]
  IC50: < 0.1 µM
[3]
  EC50: 1 to 10 µM

## Cc1ncc2ccc(-c3cccc(OCC(O)CN4CCc5ccccc5C4)c3)cn12 (stereo unspecified)
[1]
  EC50: 1 to 10 µM
[2]
  IC50: < 0.1 µM
[3]
  EC50: 1 to 10 µM

## O=C(COc1cccc2cccnc12)NC[C@H](O)CN1Cc2ccccc2C1
[1]
  EC50: 0.101 to 1 µM
[2]
  IC50: < 0.1 µM
[3]
  EC50: 1 to 10 µM

## CN(C)S(=O)(=O)c1ccccc1OCC(=O)NCC(O)CN1Cc2ccccc2C1 (stereo unspecified)
[1]
  EC50: 0.101 to 1 µM
[2]
  IC50: < 0.1 µM
[3]
  EC50: 1 to 10 µM

## O=C(COc1cccc2cccnc12)NCC(O)CN1Cc2ccccc2C1 (stereo unspecified)
[1]
  EC50: 1 to 10 µM
[2]
  IC50: 0.101 to 1 µM
[3]
  EC50: > 20 µM

## Cn1cnc2ccc(-c3cc(NCC(O)CN4CCc5ccccc5C4)n[nH]3)cc21 (stereo unspecified)
[1]
  EC50: 0.101 to 1 µM
[2]
  IC50: 0.101 to 1 µM
[3]
  EC50: > 20 µM

## O=C(COc1ccccc1-c1cc[nH]n1)NCC(O)CN1Cc2ccccc2C1 (stereo unspecified)
[1]
  EC50: 0.101 to 1 µM
[2]
  IC50: 0.101 to 1 µM
[3]
  EC50: > 20 µM

## O=C(NCC(O)CN1Cc2ccccc2C1)c1cccc(-c2ccccn2)c1 (stereo unspecified)
[1]
  EC50: 1 to 10 µM
[2]
  IC50: 0.101 to 1 µM
[3]
  EC50: > 20 µM

## CC(=O)N(CC(O)CN1CCc2ccccc2C1)c1cccc(-c2ccc3ncn(C)c3c2)c1 (stereo unspecified)
[1]
  EC50: 0.101 to 1 µM
[2]
  IC50: < 0.1 µM
[3]
  EC50: 10 to 40 µM

## Cn1cnc2cc(-c3cc(NCC(O)CN4CCc5ccccc5C4)n[nH]3)ccc21 (stereo unspecified)
[1]
  EC50: 0.101 to 1 µM
[2]
  IC50: 0.101 to 1 µM
[3]
  EC50: 1 to 10 µM

## O=C(Cn1cnc2ccc(-c3cccc(OCC(O)CN4CCc5ccccc5C4)c3)cc21)N1CCOCC1 (stereo unspecified)
[1]
  EC50: 1 to 10 µM
[2]
  IC50: 0.101 to 1 µM
[3]
  EC50: 1 to 10 µM

## CN1CCN(C(=O)Cn2cnc3ccc(-c4cccc(OCC(O)CN5CCc6ccccc6C5)c4)cc32)CC1 (stereo unspecified)
[1]
  EC50: 0.101 to 1 µM
[2]
  IC50: 0.101 to 1 µM
[3]
  EC50: 10 to 40 µM

## OC(COc1cccc(-c2ccc3ncn(C4COC4)c3c2)c1)CN1CCc2ccccc2C1 (stereo unspecified)
[1]
  EC50: 0.101 to 1 µM
[2]
  IC50: < 0.1 µM
[3]
  EC50: 10 to 40 µM

## C[C@H](Oc1cccc2cccnc12)C(=O)NC[C@@H](O)CN1Cc2ccccc2C1
[1]
  EC50: 0.101 to 1 µM
[2]
  IC50: 0.101 to 10 µM
[3]
  EC50: > 20 µM

## Cn1cnc2ccc(-c3ccnc(NC[C@@H](O)CN4CCc5ccccc5C4)c3)cc21
[1]
  EC50: 1 to 10 µM
[2]
  IC50: 0.101 to 1 µM
[3]
  EC50: 1 to 10 µM
